Test system: Human umbilical vein endothelial cells (HUVECs)
Assay: Comparison of LA-419 and ISDN: NO and ONOO− release from HUVECs measured with tandem electrochemical nanosensors (Example 1)
Format: cell-based
Details: for NO release (mean ± S.D.) / ONOO− release (mean ± S.D.): 500 nM, 12 hours, then CaI (1.0 μM); for decrease in NO release / increase in levels of ONOO− / decrease in the NO/ONOO− ratio: pretreatment 12 h
Protocol: Human umbilical vein endothelial cells (HUVECs) were isolated into primary cultures and purchased as proliferating cells from Clonetics (San Diego, Calif.). All cell culture donors were healthy, with no pregnancy or prenatal complications. The cultured cells were incubated in 95% air/5% CO2 at 37° C. and passage by an enzymatic (trypsin) procedure. The confluent cells (4 to 5×10^5 cells per 35-mm dish) were placed with minimum essential medium containing 3 mM L-arginine and 0.1 mM BH4 [(6R)-5,6,7,8-tetrahydrobiopterin]. Before the experiments, the cells (from second or third passage) were rinsed twice with Tyrode-HEPES buffer with 1.8 mM CaCl2. ISDN was obtained from Sigma-Aldrich.
Concurrent measurements of NO and ONOO^− were carried out with tandem electrochemical nanosensors combined into one working unit with a total diameter of 200-500 nm (FIG. 1). Their design was based on previously developed and well-characterized chemically modified carbon-fiber technology (Malinski and Taha, 1992; Lvovich and Scheeline, 1997). Each of the nanosensors was made by depositing a sensing material on the tip of a carbon fiber (length 4-5 μm, diameter 0.2-0.5 μm). The fibers were sealed with nonconductive epoxy and electrically connected to copper wires with conductive silver epoxy. A conductive film of polymeric nickel (II) tetrakis(3-methoxy-4-hydroxyphenyl)porphyrin for the NO-sensor and polymeric film of Mn (III) [2.2]paracyclophanylporphyrin was used for the ONOO^−-sensor.
A module of NO/ONOO^− nanosensors (diameter 1-2 μm) with a platinum wire (0.1 mm) counter electrode and saturated calomel reference electrode (SCE) were applied. Differential pulse voltammetry (DPV) and amperometry were performed with a computer-based Gamry VFP600 multichannel potentiostat. DPV was used to measure the basal NO and ONOO^− concentrations, and amperometry was used to measure changes in NO and ONOO^− concentrations from its basal level with time. The DPV current at the peak potential characteristic for NO oxidation (0.65 V) and ONOO^− reduction (−0.45 V) was directly proportional to the local concentrations of these compounds in the immediate vicinity of the sensor. Linear calibration curves (current vs. concentration) were constructed for each sensor from 10 nM to 3 μM before and after measurements with aliquots of NO and ONOO^− standard solutions, respectively. The detection limit of the sensors was 1.0 nM.
The quantification of each analyte (concentration in nM) was performed using a maximum current from amperograms and standard calibration curves. A reproducibility of measurements with nanosensors is relatively high (between 5-12%). […] The sensors were slowly raised 5±2 μm from the surface of a single endothelial cell. The eNOS agonist, calcium ionophore A23187 (CaI) as well as the different drugs were then added to the surrounding media at the cell surface with a nanoinjector that was also positioned by a computer controlled-micromanipulator.
The HUVEC preparation is stable over the course of these experiments with the cells remaining viable in culture for >24 hours. Under non-stimulating conditions, basal levels of NO release are very low (<30 nM). Measurement of NO release as a function of treatment was conducted in individual endothelial cells. Multiple measurements of NO release can be conducted on single cells following a brief refractory period. For robust statistical analysis, separate cells were used for each concentration and type of drug used in these analyses.

[1] = HUVECs from Non-Hispanic Whites

Q: What does the source list for `O=[N+]([O-])O[C@H]1CO[C@H]2[C@@H]1OC[C@H]2O[N+](=O)[O-]` [ISDN, isosorbide dinitrate]?
A: NO release (mean ± S.D.) (HUVECs from African Americans): 218 ± 16 nM; ONOO− release (mean ± S.D.) (HUVECs from African Americans): 552 ± 11 nM; NO release (mean ± S.D.) [1]: 343 ± 11 nM; ONOO− release (mean ± S.D.) [1]: 323 ± 9 nM; decrease in NO release (HUVECs from African Americans): 12%; increase in levels of ONOO− (HUVECs from African Americans): 18%; decrease in the NO/ONOO− ratio (HUVECs from African Americans, p<0.05): 25%; decrease in NO release (HUVECs from non-Hispanic whites): 11%; decrease in the NO/ONOO− ratio (HUVECs from non-Hispanic whites, p<0.01): 23%; increase in levels of ONOO− (HUVECs from whites): 16%

From US20130131161A1, “METHODS AND COMPOSITIONS FOR CARDIOVASCULAR DISEASES AND CONDITIONS” (priority 2009, published 2013)
